From patent publication US9695154B2, “Heteroaryl inhibitors of sumo activating enzyme” (MILLENNIUM PHARMACEUTICALS, INC., priority 2013, dated 2017)

Target: T1, recombinant human SAE enzyme (Homo sapiens, UniProt Q9UBT2)
T1 sequence (Q9UBT2 1-640): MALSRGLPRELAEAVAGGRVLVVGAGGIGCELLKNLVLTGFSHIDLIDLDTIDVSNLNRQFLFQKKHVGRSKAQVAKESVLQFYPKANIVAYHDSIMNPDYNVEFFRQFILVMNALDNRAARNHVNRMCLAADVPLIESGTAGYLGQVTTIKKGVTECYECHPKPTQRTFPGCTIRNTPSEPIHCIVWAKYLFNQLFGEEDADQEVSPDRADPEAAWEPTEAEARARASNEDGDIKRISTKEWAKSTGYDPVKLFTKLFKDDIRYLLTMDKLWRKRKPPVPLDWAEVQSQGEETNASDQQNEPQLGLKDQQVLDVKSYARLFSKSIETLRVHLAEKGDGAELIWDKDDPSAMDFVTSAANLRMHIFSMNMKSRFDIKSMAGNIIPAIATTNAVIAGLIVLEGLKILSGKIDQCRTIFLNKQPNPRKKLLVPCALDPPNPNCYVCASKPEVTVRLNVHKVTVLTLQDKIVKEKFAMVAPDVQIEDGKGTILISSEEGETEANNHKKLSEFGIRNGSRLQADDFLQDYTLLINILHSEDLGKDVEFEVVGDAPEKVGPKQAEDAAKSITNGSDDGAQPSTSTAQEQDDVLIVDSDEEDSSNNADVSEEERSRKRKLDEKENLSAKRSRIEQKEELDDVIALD
T1 sequence (Q9UBE0 1-346 partner): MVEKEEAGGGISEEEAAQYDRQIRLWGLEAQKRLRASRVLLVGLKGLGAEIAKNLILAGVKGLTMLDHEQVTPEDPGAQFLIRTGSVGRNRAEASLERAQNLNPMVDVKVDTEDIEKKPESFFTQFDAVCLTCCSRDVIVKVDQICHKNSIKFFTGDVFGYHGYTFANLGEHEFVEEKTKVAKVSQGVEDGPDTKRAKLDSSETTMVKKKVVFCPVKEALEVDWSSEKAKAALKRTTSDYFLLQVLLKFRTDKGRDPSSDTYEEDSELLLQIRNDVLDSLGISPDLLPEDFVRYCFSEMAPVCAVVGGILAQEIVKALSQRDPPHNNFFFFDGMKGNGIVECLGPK
Experiment: SAE HTRF Enzyme Assay
Type: biochemical
Conditions: for IC50: class symbols A-C; for inhibition at 0.111 µM: compound concentration 0.111 μM, read-out: Percent Inhibition
In short: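 Recombinant human SAE (0.11 nM) transferred Sumo-Flag (0.125 μM) to Ubc9-GST (0.01 μM) with 0.5 μM ATP in HEPES pH 7.5, MgCl2, GSH, BSA; 105 min at 24° C. EDTA stop, Eu-cryptate anti-Flag and XL-APC anti-GST added, 2 h, then HTRF read. Values given as % inhibition at one concentration or IC50.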

Compound: NS(=O)(=O)OC[C@H]1C[C@@H](Nc2ncncc2C(=O)c2ccn(Cc3ccccc3OC(F)(F)F)n2)[C@H](O)[C@@H]1O [Compound I-98, [(1R,2R,3S,4R)-2,3-dihydroxy-4-{[5-({1-[2-(trifluoromethoxy)benzyl]-1H-pyrazol-3-yl}carbonyl)pyrimidin-4-yl]amino}cyclopentyl]methyl sulfamate]
- IC50: < 10 nM
- inhibition at 0.111 µM: 96%

Compound: Cc1cc(C(=O)c2cncnc2N[C@@H]2C[C@H](COS(N)(=O)=O)[C@@H](O)C2)nn1Cc1cccc(Cl)n1 [Compound I-99, [(1R,2S,4R)-4-{[5-({1-[(6-chloropyridin-2-yl)methyl]-5-methyl-1H-pyrazol-3-yl}carbonyl)pyrimidin-4-yl]amino}-2-hydroxycyclopentyl]methyl sulfamate]
- IC50: < 10 nM
- inhibition at 0.111 µM: > 99%

Compound: NS(=O)(=O)OC[C@H]1C[C@@H](Nc2ncncc2C(=O)c2ccn(Cc3ccc(Cl)c(OC(F)(F)F)c3)n2)[C@H](O)[C@@H]1O [Compound I-100, [(1R,2R,3S,4R)-4-{[5-({1-[4-chloro-3-(trifluoromethoxy)benzyl]-1H-pyrazol-3-yl}carbonyl)pyrimidin-4-yl]amino}-2,3-dihydroxycyclopentyl]methyl sulfamate]
- IC50: < 10 nM
- inhibition at 0.111 µM: 98%

Compound: Cc1cc(C(=O)c2cncnc2N[C@@H]2C[C@H](COS(N)(=O)=O)[C@@H](O)C2)nn1Cc1ccc(Cl)o1 [Compound I-101, [(1R,2S,4R)-4-{[5-({1-[(5-chloro-2-furyl)methyl]-5-methyl-1H-pyrazol-3-yl}carbonyl)pyrimidin-4-yl]amino}-2-hydroxycyclopentyl]methyl sulfamate]
- IC50: < 10 nM
- inhibition at 0.111 µM: 100%

Compound: NS(=O)(=O)OC[C@H]1C[C@@H](Nc2ncncc2C(=O)c2ccn(Cc3cccc(C(F)(F)F)c3)n2)[C@@H](F)[C@@H]1O [Compound I-102, [(1R,2R,3R,4R)-3-fluoro-2-hydroxy-4-{[5-({1-[3-(trifluoromethyl)benzyl]-1H-pyrazol-3-yl}carbonyl)pyrimidin-4-yl]amino}cyclopentyl]methyl sulfamate]
- IC50: < 10 nM
- inhibition at 0.111 µM: 97%

Compound: NS(=O)(=O)OC[C@H]1C[C@@H](Nc2ncncc2C(=O)c2ccn(Cc3ccc4ccccc4c3)n2)[C@H](O)[C@@H]1O [Compound I-103, {(1R,2R,3S,4R)-2,3-dihydroxy-4-[(5-{[1-(2-naphthylmethyl)-1H-pyrazol-3-yl]carbonyl}pyrimidin-4-yl)amino]cyclopentyl}methyl sulfamate]
- IC50: < 10 nM
- inhibition at 0.111 µM: 97%

Compound: NS(=O)(=O)OC[C@H]1C[C@@H](Nc2ncncc2C(=O)c2ccn(Cc3cc(I)ccc3Cl)n2)C[C@@H]1O [Compound I-104, {(1R,2S,4R)-4-[(5-{[1-(2-chloro-5-iodobenzyl)-1H-pyrazol-3-yl]carbonyl}pyrimidin-4-yl)amino]-2-hydroxycyclopentyl}methyl sulfamate]
- IC50: < 10 nM
- inhibition at 0.111 µM: 100%

Compound: NS(=O)(=O)OC[C@H]1C[C@@H](Nc2ncncc2C(=O)c2cc(Cl)n(Cc3cccc(Br)c3)c2Cl)[C@@H](F)[C@@H]1O [Compound I-105, {(1R,2R,3R,4R)-4-[(5-{[1-(3-bromobenzyl)-2,5-dichloro-1H-pyrrol-3-yl]carbonyl}pyrimidin-4-yl)amino]-3-fluoro-2-hydroxycyclopentyl}methyl sulfamate]
- IC50: 100 to 1000 nM
- inhibition at 0.111 µM: 18%

Compound: NS(=O)(=O)OC[C@H]1C[C@@H](Nc2ncncc2C(=O)c2ccn(Cc3ccc(F)cc3)n2)[C@H](O)[C@@H]1O [Compound I-106, {(1R,2R,3S,4R)-4-[(5-{[1-(4-fluorobenzyl)-1H-pyrazol-3-yl]carbonyl}pyrimidin-4-yl)amino]-2,3-dihydroxycyclopentyl}methyl sulfamate]
- IC50: < 10 nM
- inhibition at 0.111 µM: > 99%

Compound: C/C=C/Cn1ccc(C(=O)c2cncnc2N[C@@H]2C[C@H](COS(N)(=O)=O)[C@@H](O)C2)n1 [Compound I-107, [(1R,2S,4R)-4-{[5-({1-[(2E)-but-2-en-1-yl]-1H-pyrazol-3-yl}carbonyl)pyrimidin-4-yl]amino}-2-hydroxycyclopentyl]methyl sulfamate]
- IC50: 10 to 100 nM
- inhibition at 0.111 µM: 70%

Compound: N#CCn1ccc(C(=O)c2cncnc2N[C@@H]2C[C@H](COS(N)(=O)=O)[C@@H](O)C2)n1 [Compound I-108, {(1R,2S,4R)-4-[(5-{[1-(cyanomethyl)-1H-pyrazol-3-yl]carbonyl}pyrimidin-4-yl)amino]-2-hydroxycyclopentyl}methyl sulfamate]
- IC50: 100 to 1000 nM
- inhibition at 0.111 µM: 18%

Compound: CC(C)(O)c1cccc(Cn2ccc(C(=O)c3cncnc3N[C@@H]3C[C@H](COS(N)(=O)=O)[C@@H](O)C3)n2)n1 [Compound I-109, [(1R,2S,4R)-2-hydroxy-4-({5-[(1-{[6-(2-hydroxypropan-2-yl)pyridin-2-yl]methyl}-1H-pyrazol-3-yl)carbonyl]pyrimidin-4-yl}amino)cyclopentyl]methyl sulfamate]
- IC50: 10 to 100 nM
- inhibition at 0.111 µM: 76%

Compound: NS(=O)(=O)OC[C@H]1C[C@@H](Nc2ncncc2C(=O)c2ccn(Cc3cc4ccccc4o3)c2)[C@@H](F)[C@@H]1O [Compound I-110, {(1R,2R,3R,4R)-4-[(5-{[1-(1-benzofuran-2-ylmethyl)-1H-pyrrol-3-yl]carbonyl}pyrimidin-4-yl)amino]-3-fluoro-2-hydroxycyclopentyl}methyl sulfamate]
- IC50: < 10 nM
- inhibition at 0.111 µM: 99%

Compound: NS(=O)(=O)OC[C@H]1C[C@@H](Nc2ncncc2C(=O)c2nn(Cc3cccc(Br)c3)cc2Cl)C[C@@H]1O [Compound I-111, {(1R,2S,4R)-4-[(5-{[1-(3-Bromobenzyl)-4-chloro-1H-pyrazol-3-yl]carbonyl}pyrimidin-4-yl)amino]-2-hydroxycyclopentyl}methyl sulfamate]
- IC50: < 10 nM
- inhibition at 0.111 µM: 91%

Compound: NS(=O)(=O)OC[C@H]1C[C@@H](Nc2ncncc2C(=O)c2ccn(Cc3ccc(Cl)c(F)c3)n2)[C@H](O)[C@@H]1O [Compound I-112, {(1R,2R,3S,4R)-4-[(5-{[1-(4-chloro-3-fluorobenzyl)-1H-pyrazol-3-yl]carbonyl}pyrimidin-4-yl)amino]-2,3-dihydroxycyclopentyl}methyl sulfamate]
- IC50: < 10 nM
- inhibition at 0.111 µM: 97%

Compound: CC(C)(C)C#CCn1ccc(C(=O)c2cncnc2N[C@@H]2C[C@H](COS(N)(=O)=O)[C@@H](O)C2)n1 [Compound I-113, {(1R,2S,4R)-4-[(5-{[1-(4,4-dimethylpent-2-yn-1-yl)-1H-pyrazol-3-yl]carbonyl}pyrimidin-4-yl)amino]-2-hydroxycyclopentyl}methyl sulfamate]
- IC50: 10 to 100 nM
- inhibition at 0.111 µM: 81%

Compound: NS(=O)(=O)OC[C@H]1C[C@@H](Nc2ncncc2C(=O)c2ccn(Cc3cc(C(F)(F)F)co3)c2)[C@@H](F)[C@@H]1O [Compound I-114, [(1R,2R,3R,4R)-3-fluoro-2-hydroxy-4-({5-[(1-{[4-(trifluoromethyl)-2-furyl]methyl}-1H-pyrrol-3-yl)carbonyl]pyrimidin-4-yl}amino)cyclopentyl]methyl sulfamate]
- IC50: < 10 nM
- inhibition at 0.111 µM: 98%

Compound: CC#CCCn1ccc(C(=O)c2cncnc2N[C@@H]2C[C@H](COS(N)(=O)=O)[C@@H](O)C2)n1 [Compound I-115]
- IC50: 100 to 1000 nM
- inhibition at 0.111 µM: 33%

Compound: C=CC(=O)N(C)c1cccc(Cn2ccc(C(=O)c3cncnc3N[C@@H]3C[C@H](COS(N)(=O)=O)[C@@H](O)[C@@H]3F)n2)c1 [Compound I-116, [(1R,2R,3R,4R)-4-({5-[(1-{3-[Acryloyl(methyl)amino]benzyl}-1H-pyrazol-3-yl)carbonyl]pyrimidin-4-yl}amino)-3-fluoro-2-hydroxycyclopentyl]methyl sulfamate]
- IC50: 100 to 1000 nM
- inhibition at 0.111 µM: 33%

Compound: NS(=O)(=O)OC[C@H]1C[C@@H](Nc2ncncc2C(=O)c2ccn(Cc3cccc(OC(F)F)c3)n2)C[C@@H]1O [Compound I-117, [(1R,2S,4R)-4-{[5-({1-[3-(difluoromethoxy)benzyl]-1H-pyrazol-3-yl}carbonyl)pyrimidin-4-yl]amino}-2-hydroxycyclopentyl]methyl sulfamate]
- IC50: < 10 nM
- inhibition at 0.111 µM: 98%

Compound: NS(=O)(=O)OC[C@H]1C[C@@H](Nc2ncncc2C(=O)c2ccn(CCc3cccc4ccccc34)n2)[C@H](O)[C@@H]1O [Compound I-118, [(1R,2R,3S,4R)-2,3-dihydroxy-4-{[5-({1-[2-(1-naphthyl)ethyl]-1H-pyrazol-3-yl}carbonyl)pyrimidin-4-yl]amino}cyclopentyl]methyl sulfamate]
- IC50: < 10 nM
- inhibition at 0.111 µM: 99%
